Source: publication PMC4299541 (Cardiovascular Diabetology, 2015)

Experiments:
[1] = target: T1, RAGE (receptor for AGEs), vRAGE (Homo sapiens, UniProt Q15109); assay: 27-MHz quartz crystal microbalance, vRAGE immobilized; format: binding
T1 construct: gene AGER

[2] = test system: Control-aptamer (DNA, single strand, phosphorothioate linkages (positions as in ref 24)) TTCGGCCTGGGGGCGGCCAGTTCGGGTCCAGTCGCGGGAG; assay: quartz crystal microbalance (27 MHz); settings: immobilised compound; highest concentration not stated
[3] = test system: GLAP-aptamer (DNA, aptamer, phosphorothioate linkage at each three bases (exact positions drawn in Figure 1C)) GCGGGTTGGGAGCCACTAGTAGCAACGTGCGACCCTCTACGAAGCAAACCATCCTCA; assay: quartz crystal microbalance (27 MHz), curve fitting; settings: immobilised compound; not affected by 2% fetal bovine serum
[4] = test system: AGE-aptamer (DNA, aptamer, phosphorothioate linkages (positions drawn in Figure 3A)) TGTAGCCCGAGTATCATTCTCCATCGCCCCCAGATACAAG; assay: as above; settings: aptamer immobilised, GLAP added; not affected by 2% fetal bovine serum

T1 sequence (Q15109 23-116 limits assumed): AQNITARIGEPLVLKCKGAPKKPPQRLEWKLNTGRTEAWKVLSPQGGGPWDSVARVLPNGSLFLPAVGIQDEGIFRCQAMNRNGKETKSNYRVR

Row | Kd [1] [µM] | binding [2] | KD [3] [µM] | KD [4] [µM] | Compound
1 | 59 |  |  |  | GLAP
2 |  | no | 2.6 | 33 | CC(=O)NC(CCCC[n+]1cc(O)cc(CO)c1)C(=O)O (racemic)
